Measurements as given in US7745457B2, “Meridamycin analogues for the treatment of neurodegenerative disorders” (Wyeth LLC, priority 2006, dated 2010).

tested on: cortical neuron cultures; experiment: Neurite outgrowth in dissociated cortical neuron cultures; type: cell-based; details: Cortical neurone; embryonic day 15 rat cortical neurons, 72 hours treatment, TUJ-1 staining, Cellomics ArrayScan ENO algorithm; read-out: EC50 in cortical neuron assays (neurite outgrowth)
Description: Dissociated cortical neuron cultures were prepared as previously described (Pong et al., 2001). Briefly, embryonic day 15 rat fetuses were collected and dissected in ice-cold PBS. Dissected cortices were pooled together and transferred to an enzymatic dissociation medium containing papain. After 30 minutes, the tissue was mechanically triturated with a fire-polished glass Pasteur pipette. Single-cell suspensions in complete media were seeded on poly-L-ornithine and laminin coated 96-well plates. 24 hours later, cultures were treated with various concentrations of compound for 72 hours. The cultures were then fixed and stained with an anti-tubulin primary antibody (TUJ-1) and a fluorescent-tagged secondary antibody. Neurite outgrowth was determined by using the Enhanced Neurite Outgrowth (ENO) algorithm with the Cellomics ArrayScan and expressed as average neurite length or total neurite length per cell.

SMILES | EC50 [nM]
CC/C1=C\CC(/C(C)=C/C(C)C(C)OC(C)=O)OC(=O)C2CCCCN2C(=O)C(=O)C2(O)OC(CCC2C)CC(OC(C)=O)C(C)C(OC(C)=O)CC(OC(C)=O)CC(OC(C)=O)/C(C)=C/C(C)CC(C)C1OC(C)=O (stereo not drawn) [Example 2] | < 1000
CC/C1=C\CC(/C(C)=C/C(C)C(C)O)OC(=O)C2CCCCN2C(=O)C(=O)C2(O)OC(CCC2C)CC(O)C(C)C(O)CC2CC(OC(C)(C)O2)/C(C)=C/C(C)CC(C)C1O (stereo not drawn) [Example 4] | < 1000
CC/C1=C\CC(/C(C)=C/C(C)C(C)OC(C)=O)OC(=O)C2CCCCN2C(=O)C(=O)C2(O)OC(CCC2C)CC(O)C(C)C(OC(C)=O)CC(OC(C)=O)CC(OC(C)=O)/C(C)=C/C(C)CC(C)C1OC(C)=O (stereo not drawn) [Example 5] | < 1000
CC/C1=C\CC(/C(C)=C/C(C)C(C)O)OC(=O)C2CCCCN2C(=O)C(=O)C2(O)OC(CCC2C)CC2OC(C)(C)OC(CC3CC(OC(C)(C)O3)/C(C)=C/C(C)CC(C)C1O)C2C (stereo not drawn) [Example 1] | < 1000
CC/C1=C\CC(/C(C)=C/C(C)C(C)OC(C)=O)OC(=O)C2CCCCN2C(=O)C(=O)C2(O)OC(CCC2C)CC(O)C(C)C(O)CC(OC(C)=O)CC(OC(C)=O)/C(C)=C/C(C)CC(C)C1OC(C)=O (stereo not drawn) [Example 3] | < 1000
CC/C1=C\CC(/C(C)=C/C(C)C(C)=O)OC(=O)C2CCCCN2C(=O)C(=O)C2(O)OC(CCC2C)CC2OC(C)(C)OC(CC3CC(OC(C)(C)O3)/C(C)=C/C(C)CC(C)C1=O)C2C (stereo not drawn) [Example 6] | < 1000
